Measurements as given in patent US12708630B2, “Combined therapy of 4′-thio-5-aza-2′-deoxycytidine and Venetoclax” (PINOTBIO, INC., priority 2021, dated 2026).

Legend:
Test in all cases: drug activity profiling cytotoxicity
Format in all cases: cell-based
COR-L105 = conditions: Homo sapiens; COR-L105 cell line, Lung (NSCLC); read-out: Aza-T-dCyd IC50
How it was run: (§1)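 Values come from a cytotoxicity profile of Aza-T-dCyd generated over a collection of 200 cancer cell lines.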

CA46 = conditions: Homo sapiens; CA46 cell line, Burkitt's lymphoma; read-out: Aza-T-dCyd IC50
How it was run: as §1

A172 = conditions: Homo sapiens, A 172; A172 cell line, CNS (Glioma); read-out: Aza-T-dCyd IC50
How it was run: as §1

MV-4-11 = conditions: Homo sapiens, MV4-11; MV-4-11 cell line, AML; read-out: Aza-T-dCyd IC50
How it was run: as §1

D283 Med = conditions: Homo sapiens; D283 Med cell line, CNS (Medulloblastoma); read-out: Aza-T-dCyd IC50
How it was run: as §1

SJRH30 = conditions: Homo sapiens; SJRH30 cell line, Sarcoma; read-out: Aza-T-dCyd IC50
How it was run: as §1

ARH-77 = conditions: Homo sapiens; ARH-77 cell line, B-cell lymphoma; read-out: Aza-T-dCyd IC50
How it was run: as §1

BC-1 = conditions: Homo sapiens, BC1; BC-1 cell line, B-cell lymphoma; read-out: Aza-T-dCyd IC50
How it was run: as §1

WM-266-4 = conditions: Homo sapiens; WM-266-4 cell line, Skin (Melanoma); read-out: Aza-T-dCyd IC50
How it was run: as §1

HCT-15 = conditions: Homo sapiens; HCT-15 cell line, Colon; read-out: Aza-T-dCyd IC50
How it was run: as §1

GA-10 = conditions: Homo sapiens; GA-10 cell line, Burkitt's lymphoma; read-out: Aza-T-dCyd IC50
How it was run: as §1

HT = conditions: Homo sapiens; HT cell line, B-cell lymphoma; read-out: Aza-T-dCyd IC50
How it was run: as §1

TT = conditions: Homo sapiens; TT cell line, Endocrine (Thyroid); read-out: Aza-T-dCyd IC50
How it was run: as §1

T98G = conditions: Homo sapiens; T98G cell line, CNS (Glioma); read-out: Aza-T-dCyd IC50
How it was run: as §1

786-O = conditions: Homo sapiens, 786-0; 786-O cell line, Kidney; read-out: Aza-T-dCyd IC50
How it was run: as §1

SW962 = conditions: Homo sapiens, SW 962; SW962 cell line, Female GU (Vulva); read-out: Aza-T-dCyd IC50
How it was run: as §1

SK-N-AS = conditions: Homo sapiens; SK-N-AS cell line, CNS (Neuroblastoma); read-out: Aza-T-dCyd IC50
How it was run: as §1

A-673 = conditions: Homo sapiens, A673; A-673 cell line, Sarcoma; read-out: Aza-T-dCyd IC50
How it was run: as §1

EB2 = conditions: Homo sapiens; EB2 cell line, Burkitt's lymphoma; read-out: Aza-T-dCyd IC50
How it was run: as §1

TF-1 = conditions: Homo sapiens; TF-1 cell line, Erythroleukemia; read-out: Aza-T-dCyd IC50
How it was run: as §1

Hs 852.T = Hs 852.T cell line, Skin (Melanoma); read-out: Aza-T-dCyd IC50
How it was run: as §1

SU-DHL-4 = conditions: Homo sapiens; SU-DHL-4 cell line, B-cell lymphoma; read-out: Aza-T-dCyd IC50
How it was run: as §1

HT-3 = conditions: Homo sapiens; HT-3 cell line, Female GU (Cervix); read-out: Aza-T-dCyd IC50
How it was run: as §1

ZR-75-1 = conditions: Homo sapiens; ZR-75-1 cell line, Breast; read-out: Aza-T-dCyd IC50
How it was run: as §1

Jurkat = conditions: Homo sapiens; Jurkat cell line, ALL; read-out: Aza-T-dCyd IC50
How it was run: as §1

SU.86.86 = conditions: Homo sapiens; SU.86.86 cell line, Pancreas; read-out: Aza-T-dCyd IC50
How it was run: as §1

A549 = conditions: Homo sapiens; A549 cell line, Lung (NSCLC); read-out: Aza-T-dCyd IC50
How it was run: as §1

Hs 936.T(C1) = Hs 936.T(C1) cell line, Skin (Melanoma); read-out: Aza-T-dCyd IC50
How it was run: as §1

RPMI 8226 = conditions: Homo sapiens; RPMI 8226 cell line, B-cell myeloma; read-out: Aza-T-dCyd IC50
How it was run: as §1

DLD-1 = conditions: Homo sapiens; DLD-1 cell line, Colon; read-out: Aza-T-dCyd IC50
How it was run: as §1

Nc1ncn([C@H]2CC(O)[C@@H](CO)S2)c(=O)n1 (stereo partly drawn) [Aza-T-dCyd, 4′-thio-5-aza-2′-deoxycytidine]
IC50 (COR-L105): 2240 nM | IC50 (CA46): 25.5 nM | IC50 (A172): > 10000 nM | IC50 (MV-4-11): 183 nM | IC50 (D283 Med): 68.8 nM | IC50 (SJRH30): 291 nM | IC50 (ARH-77): 413 nM | IC50 (BC-1): 338 nM | IC50 (WM-266-4): 429 nM | IC50 (HCT-15): 1020 nM | IC50 (GA-10): 33.5 nM | IC50 (HT): 1030 nM | IC50 (TT): > 10000 nM | IC50 (T98G): 1390 nM | IC50 (786-O): 249 nM | IC50 (SW962): > 10000 nM | IC50 (SK-N-AS): 1170 nM | IC50 (A-673): 698 nM | IC50 (EB2): 8190 nM | IC50 (TF-1): 733 nM | IC50 (Hs 852.T): > 10000 nM | IC50 (SU-DHL-4): 17.5 nM | IC50 (HT-3): 818 nM | IC50 (ZR-75-1): > 10000 nM | IC50 (Jurkat): 69.5 nM | IC50 (SU.86.86): 508 nM | IC50 (A549): 190 nM | IC50 (Hs 936.T(C1)): 398 nM | IC50 (RPMI 8226): 3270 nM | IC50 (DLD-1): 221 nM
